Data as given in PMC11930985 (Nature Communications, 2025).
Several values for one entry are separate records, joined by “and”; a condition that tells them apart may be missing. Equal entries are not always repeated. Where two headings read alike, the source gives them in different places.

Legend:
[1] = Bemcentinib plasma PK (LC-MS/MS, population PK model); assay type: in vivo, human; settings: for Cmax / AUC / half-life: human, plasma, oral; for Cmax: read-out: mean Cmax at steady state
Procedure: Thereafter, a pre-dose sample was collected at all study visits ( > Cycle 3 up to and including Cycle 15) and at End of Study. PK samples were measured using a fully validated liquid chromatography with tandem mass spectrometry method for bemcentinib. […] The PopPK model was developed by evaluating various structural models including 1 compartment and 2 compartment models. Covariate analysis was performed using a forward addition and backward elimination procedure, from which a preliminary base model was selected. During covariate analysis, continuous covariates were centered on the median population values, and the most common or most relevant category was used as the reference value for categorical covariates. A visual predictive check (VPC) was conducted to verify that the final model adequately predicted both the central tendency and variability of the observed data across studies or by proton pump inhibitor use. Quantification of parameter uncertainty in the final model was assessed by nonparametric bootstrap analysis. Population PK analysis was performed using the nonlinear mixed effects modelling methodology as implemented in the NONMEM program Version 7.4.4[35]. Data postprocessing was performed using R (Version 3.6.1)[36]. Individual population PK model parameters were estimated using NONMEM with the following $ESTIMATION parameters: METHOD = COND INTERACTION […] = 0 […] = 3. These parameters were subsequently used to predict individual steady-state profiles with a dense PK sampling scheme using the SIMULATION method in NONMEM.

AML/MDS patients = experiment: Response assessment (ELN AML / modified IWG MDS criteria): ORR, DCR; assay type: in vivo, human
Procedure: All patients underwent baseline disease assessments at screening (peripheral blood and bone marrow (BM)). Efficacy was assessed according to the blast percentage in a peripheral blood and BM aspirate sample, measurement of absolute neutrophil count, measurement of platelet count, and red cell transfusion requirement according to the European LeukemiaNet[37] response criteria for AML and the modified IWG response criteria for MDS[38]. Response criteria used are summarized in Supplementary Table 4.
Response assessments (peripheral blood and BM) were performed at Cycle 2 Day 1 (pre-dose), Cycle 4 Day 1 (pre-dose) and repeated every 3 cycles thereafter or when clinically indicated. Patients who completed 12 months of study treatment and had not experienced progressive disease (PD) underwent response assessment every 5 cycles until PD was confirmed. Efficacy endpoints were: Objective response rate (ORR), defined as the number of patients with CR, CRi, MLFS, MR or PR divided by the total number of patients in the cohort/group; Disease control rate (DCR), defined as the number of patients with CR, CRi, MLFS, MR, PR or unchanged disease for at least three cycles (considered to have stable disease (SD)) divided by the total number of patients in the cohort/group; Overall survival (OS), defined as (date of death or censoring) – (date of the first study treatment) +1. Censoring date was the last date the patient was known to be alive; Event free survival (EFS), defined as (earliest of date of death, date of progression or date of censoring) – (date of the first study treatment) +1, with event defined as death or progression. Patients who started a new anti-cancer treatment before documented progression were censored at the date of the last assessment prior to start of non-protocol treatment. […] Patients who were alive without documented progression on the last day of contact were censored at the date of the last assessment.

Nc1nc(Nc2ccc3c(c2)CC[C@@H](N2CCCC2)CC3)nn1-c1cc2c(nn1)-c1ccccc1CCC2 [Bemcentinib]
mean Ctrough at steady state ([1]; DE cohort, maintenance 100 mg daily): 136 ± 109 ng/mL | mean Ctrough at steady state ([1]; DE cohort, maintenance 300 mg daily): 382 ± 193 ng/mL | bemcentinib concentration ([1]; Figure 4, individual patients, concentration paired with maximum pAXL(Y779) inhibition): 358 ng/mL and 79 ng/mL and 276 ng/mL and 103 ng/mL and 178 ng/mL and 74 ng/mL and 173 ng/mL and 0 ng/mL and 122 ng/mL and 105 ng/mL and 73.3 ng/mL and 6.36 ng/mL | mean Ctrough at steady state ([1]; LDAC cohort, maintenance 200 mg daily): 196 ± 124 ng/mL | bemcentinib concentration ([1]; Supplementary Figure 1b, individual patients, concentration paired with maximum pSTAT5 (Y694) inhibition): 358 ng/mL and 145 ng/mL and 276 ng/mL and 103 ng/mL and 124 ng/mL and 74 ng/mL and 118 ng/mL and 0 ng/mL and 81.5 ng/mL and 112 ng/mL and 270 ng/mL | bemcentinib concentration ([1]; Supplementary Figure 1c, individual patients, concentration paired with maximum pERK1/2 (T202/Y204) inhibition): 358 ng/mL and 78.9 ng/mL and 276 ng/mL and 134 ng/mL and 130 ng/mL and 74.6 ng/mL and 118 ng/mL and 0 ng/mL and 98 ng/mL and 94 ng/mL and 73.4 ng/mL and 270 ng/mL | bemcentinib concentration ([1]; Supplementary Figure 1d, individual patients, concentration paired with maximum pAKT (S473) inhibition): 408 ng/mL and 78.9 ng/mL and 276 ng/mL and 103 ng/mL and 130 ng/mL and 74 ng/mL and 225 ng/mL and 0 ng/mL and 81.5 ng/mL and 183 ng/mL and 73.4 ng/mL and 270 ng/mL | Cmax ([1]; 100 mg, DE cohort, maintenance 100 mg daily, 10 patients): 140 ± 110 ng/mL | AUC ([1]; 100 mg, DE cohort, maintenance 100 mg daily, read-out: AUC): 3310 ± 2630 ng·h/mL | half-life ([1]; 200 mg daily, LDAC cohort, read-out: median t1/2 (converted)): 124 h | Cmax ([1]; 200 mg, DE cohort, maintenance 200 mg daily, 21 patients): 162 ± 121 ng/mL | AUC ([1]; 200 mg, DE cohort, maintenance 200 mg daily, read-out: AUC): 3810 ± 2860 ng·h/mL | Cmax ([1]; 200 mg, LDAC cohort, maintenance 200 mg daily, 35 patients): 210 ± 128 ng/mL | AUC ([1]; 200 mg, LDAC cohort, maintenance 200 mg daily, read-out: mean AUC): 4890 ± 3020 ng·h/mL | Cmax ([1]; 300 mg, DE cohort, maintenance 300 mg daily, 5 patients): 398 ± 200 ng/mL | AUC ([1]; 300 mg, DE cohort, maintenance 300 mg daily, read-out: AUC): 9390 ± 4720 ng·h/mL | half-life ([1]; DE cohort, maintenance 100 mg daily, read-out: median half-life (t1/2) (converted)): 159 h | half-life ([1]; DE cohort, maintenance 200 mg daily, read-out: median half-life (t1/2) (converted)): 124 h | half-life ([1]; DE cohort, maintenance 300 mg daily, read-out: median half-life (t1/2) (converted)): 156 h | CR (AML/MDS patients; DE 200/100 mg, N=4): 0 n (%) | CRi (AML/MDS patients; DE 200/100 mg, N=4): 0 n (%) | MLFS (AML/MDS patients; DE 200/100 mg, N=4): 0 n (%) | MR (marrow response) (AML/MDS patients; DE 200/100 mg, N=4): 0 n (%) | NE (not evaluable) (AML/MDS patients; DE 200/100 mg, N=4): 1 (25%) n (%) | Non-Responder (AML/MDS patients; DE 200/100 mg, N=4): 4 (100%) n (%) | PD (progressive disease) (AML/MDS patients; DE 200/100 mg, N=4): 1 (25%) n (%) | PR (AML/MDS patients; DE 200/100 mg, N=4): 0 n (%) | Responder (AML/MDS patients; DE 200/100 mg, N=4): 0 (0%) n (%) | UC (unchanged) (AML/MDS patients; DE 200/100 mg, N=4): 1 (25%) n (%) | CR (AML/MDS patients; DE 400/100 mg, N=6): 0 n (%) | CRi (AML/MDS patients; DE 400/100 mg, N=6): 0 n (%) | MLFS (AML/MDS patients; DE 400/100 mg, N=6): 0 n (%) | MR (marrow response) (AML/MDS patients; DE 400/100 mg, N=6): 1 (17%) n (%) | NE (not evaluable) (AML/MDS patients; DE 400/100 mg, N=6): 0 n (%) | Non-Responder (AML/MDS patients; DE 400/100 mg, N=6): 5 (83%) n (%) | PD (progressive disease) (AML/MDS patients; DE 400/100 mg, N=6): 0 n (%) | PR (AML/MDS patients; DE 400/100 mg, N=6): 0 n (%) | Responder (AML/MDS patients; DE 400/100 mg, N=6): 1 (17%) n (%) | UC (unchanged) (AML/MDS patients; DE 400/100 mg, N=6): 3 (50%) n (%) | CR (AML/MDS patients; DE 400/200 mg, N=7): 1 (14%) n (%) | CRi (AML/MDS patients; DE 400/200 mg, N=7): 1 (14%) n (%) | MLFS (AML/MDS patients; DE 400/200 mg, N=7): 0 n (%) | MR (marrow response) (AML/MDS patients; DE 400/200 mg, N=7): 0 n (%) | NE (not evaluable) (AML/MDS patients; DE 400/200 mg, N=7): 1 (14%) n (%) | Non-Responder (AML/MDS patients; DE 400/200 mg, N=7): 5 (71%) n (%) | PD (progressive disease) (AML/MDS patients; DE 400/200 mg, N=7): 1 (14%) n (%) | PR (AML/MDS patients; DE 400/200 mg, N=7): 0 n (%) | Responder (AML/MDS patients; DE 400/200 mg, N=7): 2 (29%) n (%) | UC (unchanged) (AML/MDS patients; DE 400/200 mg, N=7): 3 (43%) n (%) | CR (AML/MDS patients; DE 600/200 mg, N=14): 0 n (%) | CRi (AML/MDS patients; DE 600/200 mg, N=14): 1 (7%) n (%) | MLFS (AML/MDS patients; DE 600/200 mg, N=14): 1 (7%) n (%) | MR (marrow response) (AML/MDS patients; DE 600/200 mg, N=14): 0 n (%) | NE (not evaluable) (AML/MDS patients; DE 600/200 mg, N=14): 4 (29%) n (%) | Non-Responder (AML/MDS patients; DE 600/200 mg, N=14): 12 (86%) n (%) | PD (progressive disease) (AML/MDS patients; DE 600/200 mg, N=14): 3 (21%) n (%) | PR (AML/MDS patients; DE 600/200 mg, N=14): 0 n (%) | Responder (AML/MDS patients; DE 600/200 mg, N=14): 2 (14%) n (%) | UC (unchanged) (AML/MDS patients; DE 600/200 mg, N=14): 4 (29%) n (%) | CR (AML/MDS patients; DE 900/300 mg, N=5): 0 n (%) | CRi (AML/MDS patients; DE 900/300 mg, N=5): 0 n (%) | MLFS (AML/MDS patients; DE 900/300 mg, N=5): 0 n (%) | MR (marrow response) (AML/MDS patients; DE 900/300 mg, N=5): 0 n (%) | NE (not evaluable) (AML/MDS patients; DE 900/300 mg, N=5): 2 (40%) n (%) | Non-Responder (AML/MDS patients; DE 900/300 mg, N=5): 5 (100%) n (%) | PD (progressive disease) (AML/MDS patients; DE 900/300 mg, N=5): 0 n (%) | PR (AML/MDS patients; DE 900/300 mg, N=5): 0 n (%) | Responder (AML/MDS patients; DE 900/300 mg, N=5): 0 (0%) n (%) | UC (unchanged) (AML/MDS patients; DE 900/300 mg, N=5): 2 (40%) n (%) | Median time to objective response (AML/MDS patients; DE cohort): 22 days | ORR (AML/MDS patients; DE cohort overall, 36 patients, monotherapy): 14% | ORR (AML/MDS patients; DE cohort, 400/200 mg dosing group): 29% | CR (AML/MDS patients; DE overall, N=36): 1 (3%) n (%) | CRi (AML/MDS patients; DE overall, N=36): 2 (6%) n (%) | MLFS (AML/MDS patients; DE overall, N=36): 1 (3%) n (%) | MR (marrow response) (AML/MDS patients; DE overall, N=36): 1 (3%) n (%) | NE (not evaluable) (AML/MDS patients; DE overall, N=36): 8 (22%) n (%) | Non-Responder (AML/MDS patients; DE overall, N=36): 31 (86%) n (%) | PD (progressive disease) (AML/MDS patients; DE overall, N=36): 5 (14%) n (%) | PR (AML/MDS patients; DE overall, N=36): 0 n (%) | Responder (AML/MDS patients; DE overall, N=36): 5 (14%) n (%) | UC (unchanged) (AML/MDS patients; DE overall, N=36): 13 (36%) n (%)
